Assay [1] relates to OVCAR-3.
Experimental: (§1) Quantification of cell proliferation and cell viability was determined by measuring the amount of radioactive [^3H-methyl]-thymidine incorporated into DNA.
(§2) Cell culture: For each cell line, culture was carried according to the ATCC Product Information Sheet provided. Cell lines were always freshly thawed prior to each experiment. For all experiments exponentially growing cells were harvested and centrifuged at 1100 rpm, the spent medium was aspirated and cell pellets were resuspended in fresh complete medium. Viable cells were enumerated by trypan blue exclusion using a hemacytometer.
(§3) Cells were then seeded in 96 well tissue culture plates in a total volume of 100 μL/well. A preliminary experiment should be performed to determine the most appropriate cell density for each individual cell line. Cells were allowed to attach and acclimate overnight.
(§4) Addition of test compounds: Each test compound was dissolved in DMSO at a final concentration of 2 mM. Each stock compound was then diluted in complete medium (1:100) to obtain a 20 μM working solution. The working solution was used for further serial dilutions to obtain concentrations of 200 nM, 20 nM, 2 nM, 0.2 nM and 0.02 nM. 100 μL of each dilution was added to the 100 μL cell cultures (3 replicates),. to give final test concentrations of 100 nM, 10 nM, 1 nM, 0.1 nM and 0.01 nM. Using this system of dilutions, the maximum concentration of DMSO to which the cells were exposed was 0.01% v/v. Therefore, 0.01% DMSO was added to control cells to which no test compounds was added. On each plate two positive controls were included: Adriamycin Hydrochloride and Rapamycin. For each positive control 3 concentrations were chosen in a range that achieved an LC50, this range is cell line specific and must be predetermined in a pilot experiment. Plates were incubated for 96 hours prior to harvesting. [^3H-methyl]-thymidine incorporation: After 80 hours incubation, 10 μL (0.5 μCi) of [^3H-methyl]-thymidine diluted in 1× HBSS was added and plates were incubated overnight.
(§5) Growth medium was removed from each well and 100 uL of Trypsin-EDTA was added. The plate was incubated at 37° C. until cells were trypsinized (check under microscope). The detached cells were harvested using a semiautomatic cell harvester. Filters were dried prior to addition to scintillation vials. two mL of scintillation fluid was automatically dispensed into each vial and counting was effected on program 1 (^3H, 1 min, DPM).
(§6) The average and standard error from the DPM counts of replicate samples were calculated.
Assay [2] deals with MCF-7.
Experimental: as §1, §2, §3, §4, §5, §6
The subject of assay [3] is A431.
Experimental: as §1, §2, §3, §4, §5, §6
Assay [4] concerns SK-N-SH.
Experimental: as §1, §2, §3, §4, §5, §6
Assay [5] relates to D341.
Experimental: as §1, §2, §3, §4, §5, §6
For assay [6], the system named is SKOV-3.
Experimental: as §1, §2, §3, §4, §5, §6
For assay [7], the system named is SKMEL-2.
Experimental: as §1, §2, §3, §4, §5, §6
The subject of assay [8] is Lncap.
Experimental: as §1, §2, §3, §4, §5, §6
In assay [9] the test system is LS174T.
Experimental: as §1, §2, §3, §4, §5, §6
Setting [10] is: read-out: Inhibition of H^3 Thymidine uptake (IC50 in nM), OVCAR-3 cells, 96 hours incubation.
[11] abbreviates: read-out: Inhibition of H^3 Thymidine uptake (IC50 in nM), MCF-7 cells, 96 hours incubation.
The mark [12] stands for this setting: read-out: Inhibition of H^3 Thymidine uptake (IC50 in nM), LS174T cells, 96 hours incubation.
Where [13] appears, read: read-out: Inhibition of H^3 Thymidine uptake (IC50 in nM), A431 cells, 96 hours incubation.
The mark [14] stands for this setting: read-out: Inhibition of H^3 Thymidine uptake (IC50 in nM), SK-N-SH cells, 96 hours incubation.
Where [15] appears, read: read-out: Inhibition of H^3 Thymidine uptake (IC50 in nM), D341 cells, 96 hours incubation.
[16] abbreviates: read-out: Inhibition of H^3 Thymidine uptake (IC50 in nM), SKOV-3 cells, 96 hours incubation.
[17] abbreviates: read-out: Inhibition of H^3 Thymidine uptake (IC50 in nM), SKMEL-2 cells, 96 hours incubation.
The mark [18] stands for this setting: read-out: Inhibition of H^3 Thymidine uptake (IC50 in nM), Lncap cells, 96 hours incubation.

Molecules are shown by their SMILES. Read-outs that look alike come from different tables or passages of the source.

For `CC[C@H](C)[C@H](NC(=O)[C@@H](CC(C)C)NC(=O)O[C@@H]1CC[C@@H](C[C@@H](C)[C@@H]2CC(=O)[C@H](C)/C=C(\C)[C@@H](O)[C@@H](OC)C(=O)[C@H](C)C[C@H](C)/C=C/C=C/C=C(\C)[C@@H](OC)C[C@@H]3CC[C@@H](C)[C@@](O)(O3)C(=O)C(=O)N3CCCC[C@H]3C(=O)O2)C[C@H]1OC)C(=O)N[C@H](CO)Cc1ccccc1` [Compound 7d, Rapamycin-42-O-ester-(NH-D-Leu-L-Ile-S-Phe-CH2OH)], the IC50 stood at 343 nM in [1] (96 h); 52.2 nM in assay [2] (96 h); 12700 nM in assay [3] (96 h); 137 nM in assay [4] (96 h); 140 nM in assay [5] (96 h); 94.3 nM in [6] (96 h). The IC50 in [7] (96 h) was 358 nM; in assay [8] (96 h) it was 198 nM.
Turning to `CO[C@H]1C[C@@H]2CC[C@@H](C)[C@@](O)(O2)C(=O)C(=O)N2CCCC[C@H]2C(=O)O[C@H]([C@H](C)C[C@@H]2CC[C@@H](OC(=O)NC(CO)CO)[C@H](OC)C2)CC(=O)[C@H](C)/C=C(\C)[C@@H](O)[C@@H](OC)C(=O)[C@H](C)C[C@H](C)/C=C/C=C/C=C/1C` [Compound 7o, Rapamycin-42-O-ester-2-amino-1,3-propanediol], the IC50 was 80.7 nM in assay [1] (setting [10]); 2.58 nM in [2] (setting [11]); 1030 nM in [9] (setting [12]); 150 nM in assay [3] (setting [13]); 5.84 nM in [4] (setting [14]); 36.2 nM in assay [5] (setting [15]). In addition, the half-maximal inhibitory concentration (IC50) in [6] (setting [16]) was 27.4 nM; in assay [7] (setting [17]) it was 48.3 nM; in [8] (setting [18]), 39.6 nM.
Regarding `CO[C@H]1C[C@@H]2CC[C@@H](C)[C@@](O)(O2)C(=O)C(=O)N2CCCC[C@H]2C(=O)O[C@H]([C@H](C)C[C@@H]2CC[C@@H](OC(=O)N[C@H](CO)Cc3ccccc3)[C@H](OC)C2)CC(=O)[C@H](C)/C=C(\C)[C@@H](O)[C@@H](OC)C(=O)[C@H](C)C[C@H](C)/C=C/C=C/C=C/1C` [Compound 7j, Rapamycin-42-O-ester-(S) (−)-2-amino-3-phenyl-1-propanol], the IC50 in assay [1] (setting [10]) was 264 nM; in assay [2] (setting [11]) it was 15.3 nM; in assay [3] (setting [13]), 506 nM; in assay [4] (setting [14]), 80 nM; in assay [5] (setting [15]), 106 nM; in [6] (setting [16]), 55.9 nM. Also, the IC50 in [7] (setting [17]) came out at 157 nM; in assay [8] (setting [18]), 166 nM.
With `COC1CC2CCC(C)C(O)(O2)C(=O)C(=O)N2CCCCC2C(=O)OC(C(C)CC2CCC(OC(=O)NC(CO)CC(C)C)C(OC)C2)CC(=O)C(C)C=C(C)C(O)C(OC)C(=O)C(C)CC(C)C=CC=CC=C1C` [Compound 7t, Rapamycin-42-O-ester-(S)-(+)-2-amino-4-methyl pentanol], the IC50 in [1] (setting [10]) came out at 367 nM; in [2] (setting [11]), 53.3 nM; in assay [9] (setting [12]) it was 24000 nM; in assay [3] (setting [13]) it was 278 nM; in assay [4] (setting [14]), 99.3 nM; in assay [5] (setting [15]), 61.2 nM. Moreover, the concentration for half-maximal inhibition (IC50) in assay [6] (setting [16]) is 64.1 nM; in assay [7] (setting [17]) it was 73.2 nM; in assay [8] (setting [18]), 202 nM.
As to `CC[C@H](C)[C@H](NC(=O)[C@H](CC(C)C)NC(=O)[C@H](C)NC(=O)[C@@H](Cc1cn(C(c2ccccc2)(c2ccccc2)c2ccccc2)cn1)NC(=O)O[C@@H]1CC[C@@H](C[C@@H](C)[C@@H]2CC(=O)[C@H](C)/C=C(\C)[C@@H](O)[C@@H](OC)C(=O)[C@H](C)C[C@H](C)/C=C/C=C/C=C(\C)[C@@H](OC)C[C@@H]3CC[C@@H](C)[C@@](O)(O3)C(=O)C(=O)N3CCCC[C@H]3C(=O)O2)C[C@H]1OC)C(=O)N[C@@H](CO)Cc1ccccc1` [Compound 7g], the IC50 in assay [2] (96 h) came to 2440 nM; in assay [9] (96 h), 3680 nM; in [5] (96 h), 937 nM; in assay [6] (96 h), 595 nM; in assay [7] (96 h) it was 946 nM.
Take `COC(=O)C(NC(=O)O[C@@H]1CC[C@@H](C[C@@H](C)[C@@H]2CC(=O)[C@H](C)/C=C(\C)[C@@H](O)[C@@H](OC)C(=O)[C@H](C)C[C@H](C)/C=C/C=C/C=C(\C)[C@@H](OC)C[C@@H]3CC[C@@H](C)[C@@](O)(O3)C(=O)C(=O)N3CCCC[C@H]3C(=O)O2)C[C@H]1OC)C(=O)OC` [Compound 7w]: the IC50 in [2] (setting [11]) was 103 nM; in [9] (setting [12]) it was 859 nM; in assay [4] (setting [14]) it was 164 nM; in assay [6] (setting [16]), 26.5 nM; in assay [7] (setting [17]) it was 378 nM; in assay [8] (setting [18]), 83.5 nM.
On to `CCC(C)C(CO)NC(=O)O[C@@H]1CC[C@@H](C[C@@H](C)[C@@H]2CC(=O)[C@H](C)/C=C(\C)[C@@H](O)[C@@H](OC)C(=O)[C@H](C)C[C@H](C)/C=C/C=C/C=C(\C)[C@@H](OC)C[C@@H]3CC[C@@H](C)[C@@](O)(O3)C(=O)C(=O)N3CCCC[C@H]3C(=O)O2)C[C@H]1OC` (stereo partly shown) [Compound 7m, Rapamycin-42-O-ester-2-amino-3-methyl-1-pentanol], for which the IC50 in [1] (setting [10]) turned out to be 488 nM; in assay [2] (setting [11]), 31.3 nM; in [9] (setting [12]) it was 664 nM; in [3] (setting [13]), 626 nM; in [4] (setting [14]), 56.7 nM; in assay [5] (setting [15]), 86.8 nM. Moreover, the IC50 amounted to 69.1 nM in [6] (setting [16]), 147 nM in assay [7] (setting [17]) and 136 nM in [8] (setting [18]).
`CC[C@H](C)[C@H](NC(=O)[C@H](CC(C)C)NC(=O)[C@H](C)NC(=O)O[C@@H]1CC[C@@H](C[C@@H](C)[C@@H]2CC(=O)[C@H](C)/C=C(\C)[C@@H](O)[C@@H](OC)C(=O)[C@H](C)C[C@H](C)/C=C/C=C/C=C(\C)[C@@H](OC)C[C@@H]3CC[C@@H](C)[C@@](O)(O3)C(=O)C(=O)N3CCCC[C@H]3C(=O)O2)C[C@H]1OC)C(=O)N[C@@H](CO)Cc1ccccc1` [Compound 7e, Rapamycin-42-O-ester-(NH-L-Ala-L-Leu-L-Ile-D-Phe-CH2OH)]: the 50% inhibitory concentration (IC50) in assay [1] (96 h) is 503 nM; in [2] (96 h), 66.9 nM; in assay [9] (96 h) it was 146 nM; in assay [3] (96 h) it was 490 nM; in assay [4] (96 h), 90 nM; in assay [5] (96 h), 82.8 nM. The IC50 worked out at 76.6 nM in [6] (96 h), 155 nM in assay [7] (96 h) and 191 nM in assay [8] (96 h).
Turning to `CO[C@H]1C[C@@H]2CC[C@@H](C)[C@@](O)(O2)C(=O)C(=O)N2CCCC[C@H]2C(=O)O[C@H]([C@H](C)C[C@@H]2CC[C@@H](OC(=O)N[C@@H](CO)[C@@H](O)c3ccccc3)[C@H](OC)C2)CC(=O)[C@H](C)/C=C(\C)[C@@H](O)[C@@H](OC)C(=O)[C@H](C)C[C@H](C)/C=C/C=C/C=C/1C` [Compound 7l, Rapamycin-42-O-ester-(1S,2S)-(+)-2-amino-1-phenyl-1,3-propandiol], the IC50 in [1] (setting [10]) turned out to be 113 nM; in assay [2] (setting [11]), 6.35 nM; in assay [9] (setting [12]) it was 23500 nM; in [3] (setting [13]), 217 nM; in assay [4] (setting [14]), 15.6 nM; in assay [5] (setting [15]), 27.6 nM. The IC50 in assay [6] (setting [16]) was determined as 17.1 nM; in assay [7] (setting [17]), 29.1 nM; in assay [8] (setting [18]) it was 64.6 nM.
Take `CO[C@H]1C[C@@H]2CC[C@@H](C)[C@@](O)(O2)C(=O)C(=O)N2CCCC[C@H]2C(=O)O[C@H]([C@H](C)C[C@@H]2CC[C@@H](OC(=O)CCC(=O)N[C@H](CO)Cc3ccccc3)[C@H](OC)C2)CC(=O)[C@H](C)/C=C(\C)[C@@H](O)[C@@H](OC)C(=O)[C@H](C)C[C@H](C)/C=C/C=C/C=C/1C` [Compound 7v, Rapamycin-42-O-(3-carboxypropanoyl) ester-(S) (−)-2-amino-3-phenyl-1-propanol]: the half-inhibitory concentration (IC50) in assay [1] (setting [10]) was found to be 95.5 nM; in [2] (setting [11]) it was 5.52 nM; in assay [3] (setting [13]) it was 1030 nM; in assay [4] (setting [14]), 18.8 nM; in [5] (setting [15]) it was 15 nM; in [6] (setting [16]) it was 10.4 nM. For the same molecule, the IC50 turned out to be 81 nM in [7] (setting [17]) and 48.3 nM in assay [8] (setting [18]).
Turning to `COC1CC2CCC(C)C(O)(O2)C(=O)C(=O)N2CCCCC2C(=O)OC(C(C)CC2CCC(OC(=O)NC(CO)CC(C)C)C(OC)C2)CC(=O)C(C)C=C(C)C(O)C(OC)C(=O)C(C)CC(C)C=CC=CC=C1C` [Compound 7s, Rapamycin-42-O-ester-(R)-(−)-2-amino-4-methyl pentanol], the IC50 in [1] (setting [10]) came to 355 nM; in assay [2] (setting [11]), 15.6 nM; in assay [3] (setting [13]), 625 nM; in assay [4] (setting [14]), 97.3 nM; in assay [5] (setting [15]), 103 nM; in [6] (setting [16]), 93.6 nM. Also, the IC50 in assay [7] (setting [17]) stood at 154 nM; in [8] (setting [18]), 189 nM.
As to `CO[C@H]1C[C@@H]2CC[C@@H](C)[C@@](O)(O2)C(=O)C(=O)N2CCCC[C@H]2C(=O)O[C@H]([C@H](C)C[C@@H]2CC[C@@H](OC(=O)NC3C(=O)OC(C)(C)OC3=O)[C@H](OC)C2)CC(=O)[C@H](C)/C=C(\C)[C@@H](O)[C@@H](OC)C(=O)[C@H](C)C[C@H](C)/C=C/C=C/C=C/1C` [Compound 7x], the IC50 in assay [2] (setting [11]) is 7.09 nM; in [9] (setting [12]) it was 433 nM; in assay [4] (setting [14]) it was 11.3 nM; in assay [6] (setting [16]), 3.4 nM; in [7] (setting [17]) it was 113 nM; in assay [8] (setting [18]), 3.32 nM.
